# US20250230193A1, “CYCLIC COMPOUND HAVING SELECTIVE KRAS INHIBITORY EFFECT ON HRAS AND NRAS” (CHUGAI SEIYAKU KABUSHIKI KAISHA, priority 2022, published 2025)
# Where a SMILES comes first, the peptide text is derived from it. Bridges are numbered along the chain shown (N, C = ends). [ ]: non-standard residue; d: D form. The star is where a group is joined. hPhe(3-Cl-4-CF3) = N[C@@H](CCc1ccc(C(F)(F)F)c(Cl)c1)C(=O)O; NPrPhe(4-CF3) = CCCN[C@@H](Cc1ccc(C(F)(F)F)cc1)C(=O)O; NMeGly(cPent) = CN[C@H](C(=O)O)C1CCCC1; NMeD = CN[C@@H](CC(=O)O)C(=O)O; NMeL = CN[C@@H](CC(C)C)C(=O)O; Morpholide = C1CN(*)CCO1; Ac5c = NC1(C(=O)O)CCCC1; Aze = O=C(O)[C@@H]1CCN1; Ac4c = NC1(C(=O)O)CCC1; NPrGly = CCCNCC(=O)O; Sar = CNCC(=O)O
# Key:
# [1] = molecular target: GDP-bound NRAS wild-type protein (Homo sapiens, UniProt P01111); assay: Binding to NRAS by surface plasmon resonance (SPR), Single Cycle Kinetics; conditions: KD ratio NRAS/KRAS
# [2] = molecular target: GDP-bound HRAS wild-type protein (Homo sapiens, UniProt P01112); assay: Binding to HRAS by surface plasmon resonance (SPR), Single Cycle Kinetics; conditions: KD ratio HRAS/KRAS
# Sequence of GDP-bound HRAS wild-type protein (P01112 whole entry): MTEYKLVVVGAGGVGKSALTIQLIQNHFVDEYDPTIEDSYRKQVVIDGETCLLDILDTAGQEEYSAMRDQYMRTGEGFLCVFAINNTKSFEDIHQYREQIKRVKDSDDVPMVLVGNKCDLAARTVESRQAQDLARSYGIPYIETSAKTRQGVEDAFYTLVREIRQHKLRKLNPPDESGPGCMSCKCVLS
# Sequence of GDP-bound NRAS wild-type protein (P01111 whole entry): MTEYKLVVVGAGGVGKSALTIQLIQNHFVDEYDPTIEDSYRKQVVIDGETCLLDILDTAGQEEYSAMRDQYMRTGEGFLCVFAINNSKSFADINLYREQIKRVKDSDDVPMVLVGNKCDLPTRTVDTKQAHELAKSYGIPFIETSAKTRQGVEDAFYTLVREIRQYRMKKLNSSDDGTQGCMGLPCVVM
SMILES,NRAS/KRAS (ratio of KD value with respect to GDP-bound NRAS wild-type protein to KD value with respect to KRAS) ([1]; SPR),HRAS/KRAS (ratio of KD value with respect to GDP-bound HRAS wild-type protein to KD value with respect to KRAS) ([2]; SPR),other results
CCC(CC)[C@H]1C(=O)N(C)[C@H](C(=O)N(C)C)CC(=O)N(C)[C@@H](COC)C(=O)N[C@@H]([C@@H](C)CC)C(=O)N(C)CC(=O)N(C)[C@H]2C/C=C\CCN(C2=O)[C@@H](Cc2ccc(C)cc2)C(=O)N(C)CC(=O)N[C@@H](CCc2cc(F)c(C(F)(F)F)c(F)c2)C(=O)N2CCCC[C@H]2C(=O)NC2(CC(C)(C)C2)C(=O)N1C [PP2922],–,–,NRAS/KRAS (ratio of KD value with respect to GDP-bound NRAS wild-type protein to KD value with respect to KRAS) ([1]; class symbols): AA (a compound having 20 or more is denoted as AA); HRAS/KRAS (ratio of KD value with respect to GDP-bound HRAS wild-type protein to KD value with respect to KRAS) ([2]; class symbols): A (a compound having 10 or more and less than 20 is denoted as A)
CCCN1C(=O)CN(C)C(=O)[C@@H]2CCN2C(=O)[C@H]([C@@H](C)CC)NC(=O)[C@H](CC(C)C)N(C)C(=O)C[C@@H](C(=O)N(C)C)N(C)C(=O)[C@H](C2CCCC2)N(C)C(=O)C2(CCC2)NC(=O)[C@@H]2CCCN2C(=O)[C@H](CCc2ccc(C(F)(F)F)c(Cl)c2)NC(=O)CN(C)C(=O)[C@@H]1Cc1ccc(C(F)(F)F)cc1 [PP0430] ([NMeL]I[Aze][Sar][NPrPhe(4-CF3)][Sar][hPhe(3-Cl-4-CF3)]P[Ac4c][NMeGly(cPent)][NMeD]-NMe2; lactam N-11),B (a compound having 3 or more and less than 10 is denoted as B),B (a compound having 3 or more and less than 10 is denoted as B),–
CCCN1C(=O)[C@@H]2CCN2C(=O)CN(C)C(=O)[C@H]([C@@H](C)CC)NC(=O)[C@H](CC(C)C)N(C)C(=O)C[C@@H](C(=O)N(C)C)N(C)C(=O)[C@H](C2CCCC2)N(C)C(=O)C2(CCC2)NC(=O)[C@@H]2CCCN2C(=O)[C@H](CCc2ccc(C(F)(F)F)c(Cl)c2)NC(=O)CN(C)C(=O)[C@@H]1Cc1ccc(C(F)(F)F)cc1 [PP0441] ([NMeL]I[Sar][Aze][NPrPhe(4-CF3)][Sar][hPhe(3-Cl-4-CF3)]P[Ac4c][NMeGly(cPent)][NMeD]-NMe2; lactam N-11),C (A compound having a KD ratio of 0.1 or more and less than 3 is denoted as C),C (A compound having a KD ratio of 0.1 or more and less than 3 is denoted as C),–
CCCN1CC(=O)N(C)CC(=O)N(CCC)[C@@H](Cc2ccc(C(F)(F)F)cc2)C(=O)N(C)CC(=O)N[C@@H](CCc2ccc(C(F)(F)F)c(Cl)c2)C(=O)N2CCC[C@H]2C(=O)NC2(CCCC2)C(=O)N(C)[C@@H](C2CCCC2)C(=O)N(C)[C@H](C(=O)N2CCOCC2)CC(=O)N(C)[C@@H](CC(C)C)C(=O)N[C@@H]([C@@H](C)CC)C1=O [PP0253] ([NMeL]I[NPrGly][Sar][NPrPhe(4-CF3)][Sar][hPhe(3-Cl-4-CF3)]P[Ac5c][NMeGly(cPent)][NMeD]-Morpholide; lactam N-11),–,–,NRAS/KRAS (ratio of KD for GDP-bound NRAS wild-type to KD for KRAS) ([1]; SPR): B (a compound having 3 or more and less than 10 is denoted as B); HRAS/KRAS (ratio of KD for GDP-bound HRAS wild-type to KD for KRAS) ([2]; SPR): B (a compound having 3 or more and less than 10 is denoted as B)
CC[C@H](C)[C@@H]1NC(=O)[C@H](CC(C)C)N(C)C(=O)C[C@@H](C(=O)N2CCOCC2)N(C)C(=O)[C@H](C2CCCC2)N(C)C(=O)C2(CCCC2)NC(=O)[C@@H]2CCCN2C(=O)[C@H](CCc2ccc(C(F)(F)F)c(Cl)c2)NC(=O)CN(C)C(=O)[C@H](Cc2ccccc2)N2CCCC[C@@H](C2=O)N(C)C(=O)CN(C)C1=O [PP0529],C (A compound having a KD ratio of 0.1 or more and less than 3 is denoted as C),B (a compound having 3 or more and less than 10 is denoted as B),–
